Assay results taken from patent EP0606804B1, “Marker for neurotensin receptor” (MARTINEX R & D INC., priority 1992, dated 2001).
Where no end group is shown, it is not given here. FTC = fluorescein thiocarbamyl

Experiments:
Solubility = format: physicochemical; conditions: distilled water or aqueous buffer
Stability / shelf life = format: physicochemical; conditions: protected from light and maintained at 4°C
[1] = Toxicity (statement, no method given)
[2] = target: T1, neurotensin receptor on purified brain membranes from adult male mice (mouse, UniProt O88319 1-424); assay: competition with 0.1 nM 125I-Tyr3-neurotensin on mouse brain membranes, filtration, 20 min at 22 C
T1 construct: whole, on cells; This is the native receptor in a brain membrane preparation, not on intact cells; also called mouse brain membranes
T1 sequence (O88319 whole entry): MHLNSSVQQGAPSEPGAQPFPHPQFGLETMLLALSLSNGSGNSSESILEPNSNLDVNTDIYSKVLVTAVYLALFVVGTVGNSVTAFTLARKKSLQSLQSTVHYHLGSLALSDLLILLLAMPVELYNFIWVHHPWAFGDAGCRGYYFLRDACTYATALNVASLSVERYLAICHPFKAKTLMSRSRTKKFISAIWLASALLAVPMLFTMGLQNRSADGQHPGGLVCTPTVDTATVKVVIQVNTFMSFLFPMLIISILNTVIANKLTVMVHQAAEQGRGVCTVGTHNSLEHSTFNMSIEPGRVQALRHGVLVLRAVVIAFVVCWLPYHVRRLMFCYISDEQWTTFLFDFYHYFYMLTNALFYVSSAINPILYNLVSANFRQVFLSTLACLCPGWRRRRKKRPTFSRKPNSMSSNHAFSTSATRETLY

Row | IC50 [2] | Molecule | solubility (Solubility) | stability (Stability / shelf life) | toxicity [1]
1 |  | CC[C@H](C)[C@H](NC(=O)[C@H](Cc1ccc(O)cc1)NC(=O)[C@@H]1CCCN1C(=O)[C@H](CCCNC(=N)N)NC(=O)[C@H](CCCNC(=N)N)NC(=O)[C@@H]1CCCN1C(=O)[C@H](CCCCN)NC(=O)[C@H](CC(N)=O)NC(=O)[C@H](CCC(=O)O)NC(=O)[C@H](Cc1ccc(O)cc1)NC(=O)[C@H](CC(C)C)NC(=O)[C@H](CCC(=O)O)NC(=S)Nc1ccc2c(c1)C(=O)OC21c2ccc(O)cc2Oc2cc(O)ccc21)C(=O)N[C@@H](CC(C)C)C(=O)O [N-FTC-[Glu^1]NT, N-fluoresceyl thiocarbamyl-[Glu^1] neurotensin] | freely soluble | stable | 100% non-toxic
2 | 0.55 nM | {FTC}-ELYENKPRRPYIL (Synthetic 13-residue neurotensin analogue with Glu in place of pGlu at position 1, carrying one fluorescein per peptide; Molecular weight 2080; also called N-FTC-[Glu1]NT; FTC-[Glu1]NT) [N-fluoresceyl thiocarbamyl-[Glu1] neurotensin] |  |  | 
